# Patent US20030190370A1, “Antibacterial agents, and antibacterial and deodorizing solution comprising the same” (priority 2000, published 2003)
# Assays:
# [1] = Investigation of discoloration resistance (UV exposure, judged by eye); format: physicochemical; details: in tap water, complexes diluted to 2% (10-40 ppm silver ion), silver compounds 40 ppm, UV 2 hr
# [2] = test system: Staphylococcus aureus ATCC 6538P; assay: Minimum growth inhibition concentration, test-tube dilution method; format: cell-based
# Protocol: (§1) The minimum growth inhibition concentration was measured using test-tube dilution method in order to evaluate the antibacterial activity of the silver complexes obtained in Examples 1-5.
# [3] = test system: E. coli O-157 (Escherichia coli ATCC 43895); assay: as above; format: cell-based; details: E. coli O-157 ATCC 43895
# Protocol: as §1
# [4] = test system: Trichophyton rubrum ATCC 28188; assay: as above; format: cell-based
# Protocol: as §1
# [5] = test system: E. coli (Escherichia coli ATCC 25922); assay: as above; format: cell-based; details: E. coli ATCC 25922
# Protocol: as §1
# [6] = test system: (Candida Albicans ATCC 11651); assay: as above; format: cell-based
# Protocol: as §1
# [7] = test system: Staphylococcus aureus ATCC 25923; assay: as above; format: cell-based
# Protocol: as §1
# [8] = test system: Yeast (Trentopholia odorata); assay: as above; format: cell-based
# Protocol: as §1
Molecule,Discoloration [1],Minimum Growth Inhibition Concentration [2] [ppm],Minimum Growth Inhibition Concentration [3] [ppm],Minimum Growth Inhibition Concentration [4] [ppm],Minimum Growth Inhibition Concentration [5] [ppm],Minimum Growth Inhibition Concentration [6] [ppm],Minimum Growth Inhibition Concentration [7] [ppm],Minimum Growth Inhibition Concentration [8] [ppm]
"O=C([O-])c1ccccc1.[Ag+] [Silver benzoate solution, silver beiizoate, reference compound]",1,,,,,,,
"O=[N+]([O-])[O-].[Ag+] [Silver nitrate solution, silver nitrate, reference compound]",1,,,,,,,
Silver-diethanolamine Complex [Example 5],3,7,3,2,1,1,6,<1
Silver-triethanolamine Complex [Example 4],3,5,3,2,1,1,5,<1
